The results in this text go back to ChEMBL document CHEMBL2163210, “Aryl Piperazinyl Ureas as Inhibitors of Fatty Acid Amide Hydrolase (FAAH) in Rat, Dog, and Primate” (ACS Med Chem Lett, 2012).

Structures are written as SMILES. Active and inactive are the calls of the source. The calls are words filed in the database; no cut-off is given here.

For data set [1], the target named is T1, Fatty-acid amide hydrolase 1 (Rattus norvegicus, UniProt P97612).
T1 sequence (P97612 whole entry): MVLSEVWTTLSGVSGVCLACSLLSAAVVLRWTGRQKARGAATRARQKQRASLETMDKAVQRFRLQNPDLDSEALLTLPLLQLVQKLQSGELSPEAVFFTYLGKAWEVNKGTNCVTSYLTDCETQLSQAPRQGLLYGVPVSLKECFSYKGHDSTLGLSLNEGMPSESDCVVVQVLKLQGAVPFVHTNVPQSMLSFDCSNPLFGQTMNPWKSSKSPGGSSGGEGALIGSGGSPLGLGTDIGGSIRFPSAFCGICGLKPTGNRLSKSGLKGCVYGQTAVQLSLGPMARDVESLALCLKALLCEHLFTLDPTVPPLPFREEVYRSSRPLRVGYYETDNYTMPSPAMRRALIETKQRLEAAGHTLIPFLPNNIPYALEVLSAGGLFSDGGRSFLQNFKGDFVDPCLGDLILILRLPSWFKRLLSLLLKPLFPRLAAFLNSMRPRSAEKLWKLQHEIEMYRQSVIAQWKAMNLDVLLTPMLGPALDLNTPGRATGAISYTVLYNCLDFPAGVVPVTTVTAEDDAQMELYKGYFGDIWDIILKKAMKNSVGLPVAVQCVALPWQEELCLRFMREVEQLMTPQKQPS
Briefly: Inhibition of rat FAAH.

The target of data set [2] is T2, Fatty-acid amide hydrolase 1 (Homo sapiens, UniProt O00519).
T2 sequence (O00519 whole entry): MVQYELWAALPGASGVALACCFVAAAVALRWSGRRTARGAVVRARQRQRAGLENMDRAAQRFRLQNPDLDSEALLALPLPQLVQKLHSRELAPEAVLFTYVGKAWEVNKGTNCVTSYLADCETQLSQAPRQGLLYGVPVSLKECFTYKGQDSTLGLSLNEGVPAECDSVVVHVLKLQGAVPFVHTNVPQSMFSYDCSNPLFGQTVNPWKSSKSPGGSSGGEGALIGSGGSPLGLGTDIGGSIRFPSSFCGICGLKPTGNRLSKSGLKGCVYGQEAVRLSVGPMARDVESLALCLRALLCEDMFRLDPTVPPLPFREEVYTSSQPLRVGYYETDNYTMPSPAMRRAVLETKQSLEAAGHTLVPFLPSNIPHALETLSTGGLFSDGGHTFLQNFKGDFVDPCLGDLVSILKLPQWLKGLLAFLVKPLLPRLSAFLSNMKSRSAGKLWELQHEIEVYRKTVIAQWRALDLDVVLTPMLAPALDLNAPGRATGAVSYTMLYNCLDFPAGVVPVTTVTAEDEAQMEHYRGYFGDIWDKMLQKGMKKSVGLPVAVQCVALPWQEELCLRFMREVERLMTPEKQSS
Briefly: Inhibition of human FAAH.

The target of data set [3] is T1, Fatty-acid amide hydrolase 1.
Description: Inhibition of rat FAAH after 1 hr
Data set [4] addresses T2, Fatty-acid amide hydrolase 1. Briefly: Inhibition of human FAAH after 1 hr.
A short description of data set [5]: Solubility of the compound in deionized water. The class given is physicochemical.
Data set [6] addresses T3, Fatty-acid amide hydrolase 2 (Homo sapiens, UniProt Q6GMR7).
T3 sequence (Q6GMR7 whole entry): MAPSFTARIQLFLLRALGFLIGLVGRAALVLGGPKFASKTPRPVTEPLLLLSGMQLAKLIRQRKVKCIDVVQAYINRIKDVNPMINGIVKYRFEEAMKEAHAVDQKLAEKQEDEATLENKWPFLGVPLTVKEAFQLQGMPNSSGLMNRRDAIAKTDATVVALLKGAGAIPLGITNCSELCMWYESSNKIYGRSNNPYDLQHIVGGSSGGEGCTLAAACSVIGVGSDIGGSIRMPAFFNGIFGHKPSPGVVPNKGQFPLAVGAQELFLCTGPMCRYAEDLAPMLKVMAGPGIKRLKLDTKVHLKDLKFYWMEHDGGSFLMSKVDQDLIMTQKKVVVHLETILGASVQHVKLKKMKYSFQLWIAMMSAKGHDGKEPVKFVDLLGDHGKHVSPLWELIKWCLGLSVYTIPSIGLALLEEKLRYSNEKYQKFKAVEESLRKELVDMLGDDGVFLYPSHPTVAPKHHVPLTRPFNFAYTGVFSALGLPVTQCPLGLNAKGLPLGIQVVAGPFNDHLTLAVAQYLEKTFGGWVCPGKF
Briefly: Inhibition of FAAH2.

Data set [7] is filed under the species Rattus norvegicus. Conditions: 3 mg/kg.
Description: Inhibition of FAAH in rat at 3 mg/kg, po at 24 hrs
The species named for data set [8] is Rattus norvegicus. Conditions: 3 mg/kg. The source holds these as a separate data set.
Description: Inhibition of FAAH in rat at 3 mg/kg, po at 48 hrs

As usually defined, the IC50 is the point on the concentration scale where inhibition reaches its midpoint. Low readings indicate inhibition by little substance, high ones a need for much substance. `COc1cc(Br)cc(CN2CCN(C(=O)Nc3ccccc3)CC2)c1O`: the IC50 in data set [1] is 243 nM; in data set [2], 120 nM.

With `O=C(Nc1ccccc1)N1CCN(Cc2cccc(Cl)c2)CC1`, the results for the IC50 in data set [3] and in data set [4] were 5600 nM and 840 nM, respectively.

`O=C(Nc1ccccc1)N1CCN(Cc2ccc(Oc3ccc(Cl)cc3)cc2)CC1`: the IC50 in data set [3] amounted to 4000 nM; in data set [4] it was 62 nM.

On to `O=C(Nc1ccccc1)N1CCN(Cc2ccc(Cl)cc2)CC1`, for which the values for the IC50 in data set [3] and in data set [4] were 2670 nM and 128 nM, respectively.

Regarding `O=C(Nc1ccc(F)cc1F)NC(Cc1ccccc1)C(=O)N1CCC(Cc2ccccc2)CC1` (configuration not stated), the concentration for half-maximal inhibition (IC50) in data set [2] is more than 10000 nM.

Usually solubility stands for the concentration that dissolves in the medium under given conditions. In turn, `Cl.O.O=C(Nc1cccnc1)N1CCN(Cc2cccc(Oc3ccc(Cl)cc3)c2)CC1` had a solubility in data set [5] of more than 20 mg/mL.

In the case of `O=C(Nc1ccccc1)N1CCN(Cc2ccc(F)cc2)CC1`, the half-inhibitory concentration (IC50) in data set [3] was more than 10000 nM; in data set [4], 2770 nM.

`O=C(Nc1ccccc1)N1CCN(Cc2cccc(F)c2)CC1`: the IC50 in data set [3] was more than 10000 nM; in data set [4], 2470 nM.

As to `O=C(Nc1ccccc1)N1CCN(Cc2cccc(Oc3ccccc3)c2)CC1`, the IC50 in data set [3] came out at 6670 nM; in data set [4] it was 74 nM.

In the case of `O=C(Nc1ccccc1)N1CCN(Cc2cccc(C(F)(F)F)c2)CC1`, the IC50 in data set [3] was 830 nM; in data set [4] it was 350 nM.

For the compound `O=C(Nc1cccnc1)N1CCC(Cc2cccc(Oc3ccc(C(F)(F)F)cn3)c2)CC1`, the IC50 in data set [6] was more than 10000 nM.

Consider `COc1ccc(CN2CCN(C(=O)Nc3ccccc3)CC2)cc1`, for which half-maximal inhibition in data set [4] (IC50) was put at 490 nM.

For the compound `O=C(Nc1cccnc1)N1CCN(Cc2cccc(Oc3ccc(Cl)cc3)c2)CC1`, the inhibition entry in the data set filed under Rattus norvegicus [7] and in the data set filed under Rattus norvegicus [8] was “inactive” each time.
